Data on 19 molecules can be found in patent publication US20030119070A1, “Reagents for cell selection and methods of use” (Nexell Therapeutics, Inc., priority 2000, published 2003).

Several values for one entry are separate records, joined by “and”; a condition that tells them apart may be missing. Equal values may be shown once. Ends that are not written are not given here.

Assay [1] concerns anti-CD2 antibody B-E2. Put plainly: FACS competition assay of peptides for binding of anti-CD2 antibody B-E2 to T cells. The conditions noted are these: 1 mM peptide, 1×10^6 MNC, 15 min room temperature; FIG. 3. As to the method:
Peptides having affinity for the CD2 monoclonal antibody B-E2 were isolated by phage display biopanning. Various peptides were tested as competitors for binding of T cells to the anti-CD2 antibody B-E2. A competition assay was performed using 1 mM of each peptide. The peptides were at 2×10^7 fold molar excess relative to the competitor CD2 antigen and at 6×10^6 fold molar excess relative to anti-CD2 antibody. Competition was measured using a FACS competition assay (see FIG. 3).
For the competition assay, 0.5 ml of a 1 mM solution of various peptides was added to 1×10^6 peripheral blood mononuclear cells (MNC) followed by the addition of 100 μl of 0.02 μg/ml of CD2 antibody (B-E2) and incubated for 15 min at room temperature. Cells were washed once in lysing reagent (155 mM ammonium chloride, 10 mM potassium bicarbonate, and 0.1 mM EDTA) and twice in 2 ml of PAH (DPBS, 1% human serum albumin, 0.02% NaN3). 1 μl of goat F(ab′)2 fragment anti-mouse IgG (heavy+light)-phycoerythrin conjugated (GAM-PE; Immunotech; Miami Fla.) was added to each sample and incubated for 10 min at room temperature. Cells were washed twice in 2 ml of PAH. The final cell pellet was resuspended in 0.25 ml of 0.5% paraformaldehyde. The samples were analyzed by flow cytometry.

Assay [2] deals with anti-CD2 antibody B-E2. Put plainly: FACS release assay of cells bound to anti-CD2 antibody using peptides. The note with it: 1 mM or 5 mM peptide, 30 min room temperature, in some cases 1 mM DTT; FIG. 4. Type of assay: binding. Here is the method:
Several of the peptides were further tested for release activity. Briefly, the FACS release assay was performed by incubating 1×10^6 MNC with 100 μl of 0.02 μg/ml of CD2 antibody for 15 min at room temperature. Cells were washed once with 2 ml of lysing reagent and twice with 2 ml of PAH solution. 0.5 ml of a 1 mM or 5 mM peptide stock was added to the cell pellet and incubated at room temperature for 30 min. Cells were washed twice in 2 ml of PAH. 1 μl of GAM-PE was added to each sample and incubated for 10 min at room temperature. Cells were washed twice in 2 ml of PAH. The final cell pellet was resuspended in 0.25 ml of 0.5% paraformaldehyde. The samples were analyzed by flow cytometry.
In the release assay, either 1 mM or 5 mM peptide (1 mM peptide except where indicated to be 5 mM in FIG. 4). In some cases, the release assay was performed in the presence of 1 mM dithiothreitol (DTT). The assay was performed with two different batches of donor cells (second batch of donor cells designated with “*” in FIG. 4).

For assay [3], the target named is biotinylated 9C5 antibody (anti-human CD34 monoclonal antibody). Nature of the assay: cell-based or functional assay.

As for ACKQF, the “competition for binding of the anti-CD2 antibody B-E2 to cells” value (“competition for binding” for short) in assay [1] is “compete for binding”.
As to ACKQFACKQF, the “competition for binding” value in assay [1] was “compete for binding”.
Still for that read-out and setting: under ACKQFDFC stands “compete for binding”; under ACKQFDFCNDH, “compete for binding”.
On the same count and under the same terms, the same measure for ACKQFDFCNDHWSK: “compete for binding”; for ACKQFDFCNDHWSKSQH: “compete for binding”; for ACKQFN: “compete for binding”.
Same read-out and setting: under ACKQFNNDV stands “compete for binding”; under ACKQFNNDVTCN, “compete for binding”.
Take ACKQFNNDVTCNAAEGDD: the “competition for binding” value in assay [1] was “compete for binding”.
With ACKQFNNDVTCNKRH, in assay [1], the “competition for binding” value is “compete for binding”.
The same measure, in the same setting: the same measure for ACKQLHSVSGCR: “compete for binding”; for ACKRPP: “compete for binding”.
Same read-out and setting: under ACKRPPVSLTCH stands “compete for binding”.
Still for that read-out and setting: under ASKQF stands “compete for binding”; under KCHPNMSLKECH, “compete for binding”.
RCRRPATTPACR: the “competition for binding” value in assay [1] was “compete for binding”. The “release activity (release of T cells bound to anti-CD2 antibody)” value in assay [2] is “highest release activity”.
With RCRRPATTPACRACKQF, the “competition for binding” value in assay [1] is on record as “compete for binding”.
For Ac-QQGWFPKD [free PR34+ peptide Ac-QQGWFPKD (SEQ ID NO:2)], in assay [3], the % SUP-T1 Yield after release with free peptide (tube 2) is 43%; the % SUP-T1 Yield after release with free peptide (tube 3) is 31%; the % T-cells released by 9069N 2.5 mg (CD2-9069N 1 µg, b-9069 1 µg) came to 71%; the % T-cells released by 9069N 2.5 mg (CD2-9069N 1 µg, b-9069 10 µg) was 87% and 65%. For the same molecule, in assay [3], the % T-cells released by 9069N 2.5 mg (CD2-9069N 5 µg, b-9069 1 µg) is 61% and 56%; the % T-cells released by 9069N 2.5 mg (CD2-9069N 5 µg, b-9069 10 µg) was 50%; the % Yield after release with PR34+ 2.5 mg (streptavidin coated Dynabead control) worked out at 81.5%; the % Yield of CD8+ cells after release with free peptide (condition 3) worked out at 16%.
